Test system: MV-4-11 cells
Assay: Gene expression microarray analysis (Affymetrix PrimeView) and GSEA
Type: cell-based, human
Conditions: ProbeSet 11733176_x_at; LIST B

Nc1ncn([C@@H]2O[C@H](CO)[C@@H](O)[C@H]2O)c(=O)n1 [azacitidine]
RFU, ZNF507: 25.77 RFU

— article PMC5218480 (PLoS ONE, 2017)
